We go through 32 molecules from US20050282818A1, “Ubiquitin ligase inhibitors” (Rigel Pharmaceuticals, Inc., priority 2004, published 2005).

In one experiment the test system is H1299 cells. Briefly: Cell proliferation PAD assay, H1299. The class given is cell-based. The note with it: Homo sapiens, 48 hours. As for the experimental part: (§1) Cell lines used are available from American Type Culture Collection (ATCC), for example, cell cultures containing A549 (ATCC# CCL-185), HeLa (ATCC# CCL-2), HCT116 ATTC# CCL-247), and H1299 (ATCC# CRL-5803) cells were maintained in T175 flasks following the ATCC recommended media and handling procedures. […] A 20,000 cells/ml solution was made for plating. Cells were plated in black Packard 96 well plates by placing 100 μl per well (2,000 cells per well). […] The definitions of the cell types used are as follows: A549 is lung carcinoma; HI 299 is non-small cell lung carcinoma; HI 155 is non-small cell lung carcinoma; AsPC-1 is pancreatic adenocarcinoma; Caov-3 is ovarian adenocarcinoma; COLO 205 is colorectal adenocarcinoma; DLD-1 colorectal adenocarcinoma; HCT116 is colorectal carcinoma; DU 145 is prostate carcinoma; ES-2 is ovarian clear cell carcinoma; H460 is large cell lung carcinoma; HELA is cervical adenocarcinoma; MIA PaCa-2 is pancreatice carcinoma; OVCAR-3 is ovarian adenocarcinoma; OVCAR8 is ovarian carcinoma; PC3 is prostate adenocarcinoma; SK-OV-3 is ovarian adenocarcinoma; SU86.86 is pancreatic carcinoma; TOV-21G is avarian clear cell carcinoma; U2OS is bone osteosarcoma; is ASPC-I is pancreatic adenocarcinoma; BXPC-3 is pabcreatic adenocarcinoma; HL60 is promyeloblast promyelocytic leukemia; K562 is bone marrow chronic myelogenous leukemia; L1210 is mouse lymphocytic leukemia; MOLT3 is T lymphoblast acute lymphoblastic leukemia; MOLT4 is T lymphoblast acute lymphoblastic leukemia; SW620 is colorectal adenocarcinoma; THP-1 is monocyte acute monocytic leukemia; U937 is histiocytic lymphoma; and UACC-257 is melanoma.
(§2) Compounds and additional media were added 24 hours after cell plating. […] All compound testing was done in duplicate using 6.3 fold dilutions starting with 10 mM. […] Taxol and at least one additional control were run on all plates. Three microliters of the compound master plate were added to deep well blocks containing 750 μl of RPMI media. One hundred microliters were transferred from the compound/media deep well blocks to the plated cells resulting in a 500 fold dilution of the compounds. Cells were grown at 37° C., 5% CO2 for 48 hours.
(§3) Cells to be analyzed by photography were fixed and stained. One hundred microliters of media were removed and 100 μl of 9.3% formamide was added to each well. Plates were left on the benchtop for 45 minutes. A staining solution containing 1.55 μl of 1 mg/ml DAPI added to 18.75 ml PBS was warmed for 15 minutes at 37° C. The cells were aspirated prior to washing with 100 μl of PBS. Seventy microliters of PBS were aspirated and 170 μl of the DAPI solution were added to each well of fixed cells. Plates were left at room temperature for one hour then aspirated and washed twice with 100 μl of PBS. The stained cells were left at 4° C. for a minimum of 16 hours before photographic analysis with Array Scan II (Cellomics). Analysis of the photographic images to determine numbers of live cells (proliferation), apoptotic cells and dead cells, were according to the methods described in U.S. Utility patent application Ser. No. 10/652,440, which incorporated herein in its entirety.

A further experiment relates to A549 cells. Briefly: Cell proliferation PAD assay, A549. The note with it: Homo sapiens, 48 hours. Format: cell-based. As for the experimental part:
as §1, §2, §3

The mark [1] stands for this setting: NCI-H1299, 3pt, read-out: H1299 3pt.
Where [2] appears, read: NCI-H1299, 6pt, read-out: H1299 6pt.

SMILES strings stand for the structures. Read-outs that look alike come from different tables or passages of the source.

`O=C(CN1CCN(S(=O)(=O)c2cccc3nonc23)CC1)N1CCOCC1` [compound 129, 4-{[4-(2-morpholin-4-yl-2-oxoethyl)piperazin-1-yl]sulfonyl}-2,1,3-benzoxadiazole]: the IC50 is at least 20 µM in the experiment with H1299 cells (setting [1]) and at least 20 µM with A549 cells (3pt, read-out: A549 3pt).
For the molecule `CC(=O)N1CCN(S(=O)(=O)c2cccc3nonc23)CC1` [compound 128, 4-[(4-acetylpiperazin-1-yl)sulfonyl]-2,1,3-benzoxadiazole], the IC50 in the experiment on H1299 cells (setting [1]) is at least 20 µM; with A549 cells (3pt, read-out: A549 3pt), at least 20 µM.
As to `Cc1cc2cc(NS(=O)(=O)c3cccc4nonc34)ccc2[nH]1` [compound 24, N-(2-methyl-1H-indol-5-yl)-2,1,3-benzoxadiazole-4-sulfonamide], the IC50 with H1299 cells (setting [1]) fell in the range of 1 to 20 µM; with A549 cells (3pt, read-out: A549 3pt) it was 1 to 20 µM.
As for `Fc1cc(F)cc(-c2cc(Cl)c3nonc3c2)c1` [compound 324, 4-Chloro-6-[3,5-(difluoro)phenyl]-2,1,3-benzoxadiazole], the IC50 was at least 20 µM with H1299 cells (setting [2]) and at least 20 µM in the experiment with A549 cells (6pt, read-out: A549 6pt).
Turning to `O=S(=O)(Nc1ccncc1)c1cccc2nonc12` [compound 68, N-pyridin-4-yl-2,1,3-benzoxadiazole-4-sulfonamide], the IC50 with H1299 cells (setting [1]) was at least 20 µM; with A549 cells (3pt, read-out: A549 3pt), at least 20 µM.
Turning to `CSc1ccc(-c2ccc([N+](=O)[O-])c3nonc23)cc1` [compound 318, 7-[4-(Methylthio)phenyl]-4-nitro-2,1,3-benzoxadiazole], the IC50 with H1299 cells (setting [2]) is below 1 µM; with A549 cells (6pt, read-out: A549 6pt), below 1 µM.
`FC(F)(F)c1cccc(-c2cc(Cl)c3nonc3c2)c1` [compound 325, 4-Chloro-6-[3-(trifluoromethyl)phenyl]-2,1,3-benzoxadiazole]: the IC50 with H1299 cells (setting [2]) was at least 20 µM; with A549 cells (6pt, read-out: A549 6pt), at least 20 µM.
For the molecule `Cc1cc(F)ccc1NS(=O)(=O)c1cccc2nonc12` [compound 19, N-(4-fluoro-2-methylphenyl)-2,1,3-benzoxadiazole-4-sulfonamide], the IC50 is at least 20 µM with H1299 cells (setting [1]) and at least 20 µM in the experiment on A549 cells (3pt, read-out: A549 3pt).
As to `O=S(=O)(NCC1CCCCC1)c1cccc2nonc12` [compound 53, N-(cyclohexylmethyl)-2,1,3-benzoxadiazole-4-sulfonamide], the IC50 in the experiment on H1299 cells (setting [1]) is at least 20 µM; with A549 cells (3pt, read-out: A549 3pt), at least 20 µM.
Take `COCCNS(=O)(=O)c1cccc2nonc12` [compound 50, N-(2-methoxyethyl)-2,1,3-benzoxadiazole-4-sulfonamide]: the IC50 with H1299 cells (setting [1]) was at least 20 µM; in the experiment with A549 cells (3pt, read-out: A549 3pt), at least 20 µM.
`O=S(=O)(c1cccc2nonc12)N1CCN(c2ncccn2)CC1` [compound 130, 4-[(4-pyrimidin-2-ylpiperazin-1-yl)sulfonyl]-2,1,3-benzoxadiazole]: the IC50 with H1299 cells (setting [1]) was at least 20 µM; with A549 cells (3pt, read-out: A549 3pt) it was at least 20 µM.
As to `FC(F)(F)c1ccc(-c2cc(Cl)c3nonc3c2)cc1` [compound 327, 4-Chloro-6-[4-(trifluoromethyl)phenyl]-2,1,3-benzoxadiazole], the IC50 is at least 20 µM in the experiment on H1299 cells (setting [2]) and at least 20 µM with A549 cells (6pt, read-out: A549 6pt).
Take `O=S(=O)(Nc1cccc2nsnc12)c1ccc(F)cc1Br` [compound 77, N-2,1,3-benzothiadiazol-4-yl-2-bromo-4-fluorobenzenesulfonamide]: the IC50 is at least 20 µM with H1299 cells (setting [1]) and at least 20 µM in the experiment on A549 cells (3pt, read-out: A549 3pt).
Consider `COc1cccc(-c2ccc([N+](=O)[O-])c3nonc23)c1` [compound 319, 7-(3-Methoxyphenyl)-4-nitro-2,1,3-benzoxadiazole], for which the IC50 in the experiment on H1299 cells (setting [2]) was below 1 µM; in the experiment with A549 cells (6pt, read-out: A549 6pt), below 1 µM.
In the case of `O=S(=O)(Nc1ccccc1I)c1cccc2nonc12` [compound 57, N-(2-iodophenyl)-2,1,3-benzoxadiazole-4-sulfonamide], the IC50 in the experiment with H1299 cells (setting [1]) is at least 20 µM; in the experiment on A549 cells (3pt, read-out: A549 3pt), at least 20 µM.
Take `O=S(=O)(Nc1cc(F)ccc1F)c1cccc2nonc12` [compound 27, N-(2,5-difluorophenyl)-2,1,3-benzoxadiazole-4-sulfonamide]: the IC50 in the experiment with H1299 cells (setting [1]) was at least 20 µM; in the experiment on A549 cells (3pt, read-out: A549 3pt) it was at least 20 µM.
In the case of `O=S(=O)(Nc1cccc(F)c1)c1cccc2nonc12` [compound 22, N-(3-fluorophenyl)-2,1,3-benzoxadiazole-4-sulfonamide], the IC50 was at least 20 µM in the experiment on H1299 cells (setting [1]) and at least 20 µM in the experiment with A549 cells (3pt, read-out: A549 3pt).
Take `O=S(=O)(Nc1cccc2nsnc12)c1ccc(F)c(Cl)c1` [compound 76, N-2,1,3-benzothiadiazol-4-yl-3-chloro-4-fluorobenzenesulfonamide]: the IC50 is at least 20 µM with H1299 cells (setting [1]) and at least 20 µM in the experiment with A549 cells (3pt, read-out: A549 3pt).
For `O=S(=O)(Nc1cccc2nsnc12)c1cc(F)c(F)c(F)c1` [compound 71, N-2,1,3-benzothiadiazol-4-yl-3,4,5-trifluorobenzenesulfonamide], the IC50 was at least 20 µM in the experiment with H1299 cells (setting [1]) and 1 to 20 µM with A549 cells (3pt, read-out: A549 3pt).
Regarding `O=S(=O)(Nc1ccc(F)c(Cl)c1)c1cccc2nonc12` [compound 14, N-(3-chloro-4-fluorophenyl)-2,1,3-benzoxadiazole-4-sulfonamide], the IC50 with H1299 cells (setting [1]) is at least 20 µM; with A549 cells (3pt, read-out: A549 3pt), at least 20 µM.
With `COc1ccc(NS(=O)(=O)c2cccc3nonc23)cc1` [compound 51, N-(4-methoxyphenyl)-2,1,3-benzoxadiazole-4-sulfonamide], the IC50 is at least 20 µM in the experiment on H1299 cells (setting [1]) and at least 20 µM with A549 cells (3pt, read-out: A549 3pt).
On to `O=[N+]([O-])c1ccc(NS(=O)(=O)c2cccc3nonc23)cc1` [compound 65, N-(4-nitrophenyl)-2,1,3-benzoxadiazole-4-sulfonamide], for which the IC50 in the experiment on H1299 cells (setting [1]) is at least 20 µM; in the experiment with A549 cells (3pt, read-out: A549 3pt), at least 20 µM.
`O=S(=O)(Nc1ccccc1OC(F)(F)F)c1cccc2nonc12` [compound 67, N[2-(trifluoromethoxy)phenyl]2,1,3-benzoxadiazole-4-sulfonamide]: the IC50 in the experiment with H1299 cells (setting [1]) was at least 20 µM; with A549 cells (3pt, read-out: A549 3pt), at least 20 µM.
Consider `Cc1cc(NS(=O)(=O)c2cccc3nonc23)ccc1I` [compound 18, N-(4-iodo-3-methylphenyl)-2,1,3-benzoxadiazole-4-sulfonamide], for which the IC50 in the experiment with H1299 cells (setting [1]) is at least 20 µM; with A549 cells (3pt, read-out: A549 3pt), at least 20 µM.
Consider `N#Cc1ccccc1S(=O)(=O)Nc1cccc2nsnc12` [compound 100, N-2,1,3-benzothiadiazol-4-yl-2-cyanobenzenesulfonamide], for which the IC50 in the experiment on H1299 cells (setting [1]) is at least 20 µM; with A549 cells (3pt, read-out: A549 3pt), at least 20 µM.
In the case of `Cc1cccc(-c2cc(Cl)c3nonc3c2)c1` [compound 326, 4-Chloro-6-(3-methylphenyl)-2,1,3-benzoxadiazole], the IC50 was at least 20 µM in the experiment with H1299 cells (setting [2]) and at least 20 µM with A549 cells (6pt, read-out: A549 6pt).
For `O=S(=O)(Nc1cccc(Cl)c1)c1cccc2nonc12` [compound 43, N-(3-chlorophenyl)-2,1,3-benzoxadiazole-4-sulfonamide], the IC50 was at least 20 µM in the experiment with H1299 cells (setting [1]) and 1 to 20 µM with A549 cells (3pt, read-out: A549 3pt).
Consider `CC(C)(C)c1ccc(-c2cc(Cl)c3nonc3c2)cc1` [compound 329, 4-Chloro-6-(4-(tert-butyl)phenyl)-2,1,3-benzoxadiazole], for which the IC50 in the experiment with H1299 cells (setting [2]) is at least 20 µM; in the experiment on A549 cells (6pt, read-out: A549 6pt), at least 20 µM.
In the case of `O=S(=O)(c1cccc2nonc12)N1CCN(CCN2CCOCC2)CC1` [compound 127], the IC50 in the experiment with H1299 cells (setting [1]) is at least 20 µM; in the experiment with A549 cells (3pt, read-out: A549 3pt), at least 20 µM.
In the case of `N#Cc1cccnc1N1CCN(S(=O)(=O)c2cccc3nonc23)CC1` [compound 119, 2-[4-(2,1,3-benzoxadiazol-4-ylsulfonyl)piperazin-1-yl]nicotinonitrile], the IC50 was at least 20 µM in the experiment with H1299 cells (setting [1]) and at least 20 µM in the experiment with A549 cells (3pt, read-out: A549 3pt).
Regarding `O=S(=O)(c1cccc2nonc12)N1CCN(c2cc(C(F)(F)F)ccn2)CC1` [compound 124, 4-({4-[4-(trifluoromethyl)pyridin-2-yl]piperazin-1-yl}sulfonyl)-2,1,3-benzoxadiazole], the IC50 was at least 20 µM in the experiment with H1299 cells (setting [1]) and at least 20 µM with A549 cells (3pt, read-out: A549 3pt).
In the case of `O=S(=O)(c1cccc2nonc12)N1CCN(c2cccc(C(F)(F)F)c2)CC1` [compound 125, 4({4-[3-(trifluoromethyl)phenyl]piperazin-1-yl}sulfonyl)-2,1,3-benzoxadiazole], the IC50 with H1299 cells (setting [1]) was at least 20 µM; with A549 cells (3pt, read-out: A549 3pt), at least 20 µM.
